# Laboratory results as given in US4486419A, “5,2',3',4',4",6"-Hexadeoxykanamycin and its 1-N-acylated derivative” (Zaidan Hojin Biseibutsu Kagaku Kenkyu Kai, priority 1982, dated 1984).
# Columns and labels:
# [1] = test system: Pseudomonas aeruginosa B-13; type: cell-based; settings: B13, 18 h
# Escherichia coli W677 = type: cell-based; settings: nutrient agar, 37° C., 18 hours
# Providencia 2991 = type: cell-based; settings: nutrient agar, 37° C., 18 hours
# Bacillus anthracis = experiment: microbe, parasite or virus in culture; type: cell-based; settings: 18 h
# [2] = test system: Escherichia coli K-12 J5R 11-2; type: cell-based; settings: K12J5R112, nutrient agar, 37° C., 18 hours
# Proteus rettgeri GN466 = type: cell-based; settings: Providencia rettgeri, nutrient agar, 37° C., 18 hours
# [3] = test system: Pseudomonas aeruginosa TI-13; type: cell-based; settings: TI13, nutrient agar, 37° C., 18 hours
# [4] = test system: Staphylococcus aureus Ap01; type: cell-based; settings: nutrient agar, 37° C., 18 hours
# [5] = test system: Escherichia coli K-12 C 600R135; experiment: microbe, parasite or virus in culture; type: cell-based; settings: K12C600R135, 18 h
# [6] = test system: Salmonella enteritidis 1891; type: cell-based; settings: Salmonella enterica, nutrient agar, 37° C., 18 hours
# Escherichia coli NIHJ = type: cell-based; settings: nutrient agar, 37° C., 18 hours
# [7] = test system: Staphylococcus epidermidis 109; type: cell-based; settings: nutrient agar, 37° C., 18 hours
# [8] = test system: Shigella flexneri 4b JS11811; type: cell-based; settings: 4BJS11811, nutrient agar, 37° C., 18 hours
# [9] = test system: Escherichia coli K-12 LA 290 R55; experiment: microbe, parasite or virus in culture; type: cell-based; settings: K12LA290R55, 18 h
# [10] = test system: Pseudomonas aeruginosa K-Ps102; type: cell-based; settings: KPS102, 18 h
# [11] = test system: Pseudomonas aeruginosa No. 12; type: cell-based; settings: nutrient agar, 37° C., 18 hours
# Proteus vulgaris OX19 = type: cell-based; settings: nutrient agar, 37° C., 18 hours
# Serratia marcescens = experiment: microbe, parasite or virus in culture; settings: 18 h
# Description: (§1) Thus, the minimum inhibitory concentrations (mcg/ml) of the hexadeoxykanamycin and of the hexadeoxyamikacin according to this invention against various microorganisms were determined according to serial dilution method on a nutrient agar medium at 37° C., the estimation being made after 18 hours incubation. For comparison purpose, the minimum inhibitory concentrations of amikacin were also determined in the same manner as stated above.
# [12] = test system: Corynebacterium bovis 1810; experiment: microbe, parasite or virus in culture; settings: Corynebacterium bovis, 1810, 18 h
# Description: as §1
# [13] = test system: Pseudomonas aeruginosa PST1; type: cell-based; settings: nutrient agar, 37° C., 18 hours
# [14] = test system: Escherichia coli K-12 R 388; type: cell-based; settings: K12R388, 18 h
# Providencia Pv 16 = type: cell-based; settings: PV16, nutrient agar, 37° C., 18 hours
# [15] = test system: Mycobacterium smegmatis ATCC 607; type: cell-based; settings: Mycolicibacterium smegmatis, ATCC607; nutrient agar, 37° C., 18 hours
# Escherichia coli K-12 = type: cell-based; settings: K12, nutrient agar, 37° C., 18 hours
# [16] = test system: Pseudomonas aeruginosa 99; type: cell-based; settings: Pseudomonas aeruginosa, 99, 18 h
# [17] = test system: Pseudomonas aeruginosa 21-75; type: cell-based; settings: 2175, nutrient agar, 37° C., 18 hours
# [18] = test system: Pseudomonas aeruginosa A3; type: cell-based; settings: A3, 18 h
# [19] = test system: Escherichia coli K-12 ML 1410 R81; experiment: microbe, parasite or virus in culture; type: cell-based; settings: 18 h
# [20] = test system: Pseudomonas aeruginosa GN315; type: cell-based; settings: nutrient agar, 37° C., 18 hours
# [21] = test system: Pseudomonas aeruginosa ROS134/PU21; type: cell-based; settings: ROS134/PU21, 18 h
# [22] = test system: Staphylococcus aureus Smith; type: cell-based; settings: nutrient agar, 37° C., 18 hours
# Serratia SOU = type: cell-based; settings: nutrient agar, 37° C., 18 hours
# [23] = test system: Escherichia coli K-12 LA 290 R64; experiment: microbe, parasite or virus in culture; type: cell-based; settings: K12LA290R64, 18 h
# [24] = test system: Staphylococcus aureus FDA 209P; type: cell-based; settings: FDA209P, nutrient agar, 37° C., 18 hours
# Proteus rettgeri GN311 = type: cell-based; settings: Providencia rettgeri, nutrient agar, 37° C., 18 hours
# Shigella sonnei JS11746 = type: cell-based; settings: nutrient agar, 37° C., 18 hours
# [25] = test system: Escherichia coli JR66/W677; type: cell-based; settings: JR66/W677, 18 h
# [26] = test system: Bacillus subtilis PCI 219; type: cell-based; settings: PCI219, nutrient agar, 37° C., 18 hours
# [27] = test system: Klebsiella pneumoniae 22 #3038; type: cell-based; settings: nutrient agar, 37° C., 18 hours
# Salmonella typhi T-63 = type: cell-based; settings: Salmonella enterica, 18 h
# [28] = test system: Pseudomonas aeruginosa H11; type: cell-based; settings: nutrient agar, 37° C., 18 hours
# [29] = test system: Bacillus subtilis NRRL B-558; type: cell-based; settings: NRRLB558, nutrient agar, 37° C., 18 hours
# [30] = test system: Pseudomonas aeruginosa H9; type: cell-based; settings: H9, 18 h
compound,measurement,setting,value
"C[C@@H]1C[C@H](N)[C@@H](O)[C@@H](O[C@@H]2C[C@H](O[C@@H]3CCC[C@@H](CN)O3)[C@@H](N)C[C@H]2NC(=O)[C@@H](O)CCN)O1 [Hexadeoxyamikacin, 1-N-[(S)-4-amino-2-hydroxybutyryl]-5,2',3',4',4"",6""-hexadeoxykanamycin]",MIC,[1],50 µg/mL
same,MIC,Escherichia coli W677,0.78 µg/mL
same,MIC,Providencia 2991,6.25 µg/mL
same,MIC,Bacillus anthracis,1.56 µg/mL
same,MIC,[2],1.56 µg/mL
same,MIC,Proteus rettgeri GN466,1.56 µg/mL
same,MIC,[3],12.5 µg/mL
same,MIC,[4],3.13 µg/mL
same,MIC,[5],1.56 µg/mL
same,MIC,[6],3.13 µg/mL
same,MIC,Escherichia coli NIHJ,1.56 µg/mL
same,MIC,[7],1.56 µg/mL
same,MIC,[8],6.25 µg/mL
same,MIC,[9],1.56 µg/mL
same,MIC,[10],50 µg/mL
same,MIC,[11],25 µg/mL
same,MIC,Proteus vulgaris OX19,0.78 µg/mL
same,MIC,Serratia marcescens,6.25 µg/mL
same,MIC,[12],6.25 µg/mL
same,MIC,[13],50 µg/mL
same,MIC,[14],0.78 µg/mL
same,MIC,Providencia Pv 16,3.13 µg/mL
same,MIC,[15],1.56 µg/mL
same,MIC,Escherichia coli K-12,0.78 µg/mL
same,MIC,[16],50 µg/mL
same,MIC,[17],100 µg/mL
same,MIC,[18],0.78 µg/mL
same,MIC,[19],3.13 µg/mL
same,MIC,[20],> 100 µg/mL
same,MIC,[21],> 100 µg/mL
same,MIC,[22],1.56 µg/mL
same,MIC,Serratia SOU,50 µg/mL
same,MIC,[23],3.13 µg/mL
same,MIC,[24],0.78 µg/mL
same,MIC,Proteus rettgeri GN311,1.56 µg/mL
same,MIC,Shigella sonnei JS11746,3.13 µg/mL
same,MIC,[25],3.13 µg/mL
same,MIC,[26],0.78 µg/mL
same,MIC,[27],3.13 µg/mL
same,MIC,Salmonella typhi T-63,0.78 µg/mL
same,MIC,[28],100 µg/mL
same,MIC,[29],0.78 µg/mL
same,MIC,[30],50 µg/mL
"C[C@@H]1C[C@H](N)[C@@H](O)[C@@H](O[C@@H]2C[C@H](O[C@@H]3CCC[C@@H](CN)O3)[C@@H](N)C[C@H]2N)O1 [Hexadeoxykanamycin, 5,2',3',4',4"",6""-hexadeoxykanamycin]",MIC,[1],> 100 µg/mL
same,MIC,Escherichia coli W677,1.56 µg/mL
same,MIC,Providencia 2991,50 µg/mL
same,MIC,Bacillus anthracis,1.56 µg/mL
same,MIC,[2],25 µg/mL
same,MIC,Proteus rettgeri GN466,1.56 µg/mL
same,MIC,[3],50 µg/mL
same,MIC,[4],3.13 µg/mL
same,MIC,[5],1.56 µg/mL
same,MIC,[6],1.56 µg/mL
same,MIC,Escherichia coli NIHJ,3.13 µg/mL
same,MIC,[7],3.13 µg/mL
same,MIC,[8],6.25 µg/mL
same,MIC,[9],100 µg/mL
same,MIC,[10],> 100 µg/mL
same,MIC,[11],50 µg/mL
same,MIC,Proteus vulgaris OX19,1.56 µg/mL
same,MIC,Serratia marcescens,6.25 µg/mL
same,MIC,[12],6.25 µg/mL
same,MIC,[13],> 100 µg/mL
same,MIC,[14],1.56 µg/mL
same,MIC,Providencia Pv 16,12.5 µg/mL
same,MIC,[15],0.78 µg/mL
same,MIC,Escherichia coli K-12,1.56 µg/mL
same,MIC,[16],> 100 µg/mL
same,MIC,[17],> 100 µg/mL
same,MIC,[18],3.13 µg/mL
same,MIC,[19],25 µg/mL
same,MIC,[20],> 100 µg/mL
same,MIC,[21],> 100 µg/mL
same,MIC,[22],0.78 µg/mL
same,MIC,Serratia SOU,> 100 µg/mL
same,MIC,[23],25 µg/mL
same,MIC,[24],1.56 µg/mL
same,MIC,Proteus rettgeri GN311,0.78 µg/mL
same,MIC,Shigella sonnei JS11746,3.13 µg/mL
same,MIC,[25],> 100 µg/mL
same,MIC,[26],0.78 µg/mL
same,MIC,[27],> 100 µg/mL
same,MIC,Salmonella typhi T-63,0.78 µg/mL
same,MIC,[28],> 100 µg/mL
same,MIC,[29],0.78 µg/mL
same,MIC,[30],100 µg/mL
